Holding throughout (assay type): in vitro ADME
For one series, the target named is T1, CYP2B6 (Homo sapiens, UniProt P20813).
T1 sequence (P20813 1-491): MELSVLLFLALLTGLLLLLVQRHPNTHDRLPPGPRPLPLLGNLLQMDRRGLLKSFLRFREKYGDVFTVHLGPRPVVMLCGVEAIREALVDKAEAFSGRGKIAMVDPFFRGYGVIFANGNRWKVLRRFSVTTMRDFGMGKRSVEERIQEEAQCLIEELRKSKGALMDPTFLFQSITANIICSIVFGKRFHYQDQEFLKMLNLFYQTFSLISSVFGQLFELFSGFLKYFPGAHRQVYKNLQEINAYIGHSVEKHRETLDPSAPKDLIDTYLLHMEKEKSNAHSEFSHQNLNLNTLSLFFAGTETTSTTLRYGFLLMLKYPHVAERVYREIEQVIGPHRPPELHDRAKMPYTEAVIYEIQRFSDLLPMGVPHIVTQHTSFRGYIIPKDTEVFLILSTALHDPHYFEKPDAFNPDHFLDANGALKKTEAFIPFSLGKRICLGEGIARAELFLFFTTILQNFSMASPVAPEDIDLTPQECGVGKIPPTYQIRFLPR
Description: CYP inhibition in human liver microsomes, bupropion hydroxylation (BPHY). To be noted: pH 7.4, probe bupropion (hydroxylation, BPHY). An excerpt: The DAD was set at 280 nm.
(In general: Liver microsomes are vesicles of endoplasmic reticulum, rich in cytochrome P450 enzymes.)

Another series concerns the target T2, UGT1A3 (Homo sapiens, UniProt P35503).
T2 construct: The typical incubation mixture contained human liver microsomes (0.5 mg/mL) along with SKN (10 μM); tissue BD Gentest; host or cells: human liver microsomes
T2 sequence (P35503 29-534): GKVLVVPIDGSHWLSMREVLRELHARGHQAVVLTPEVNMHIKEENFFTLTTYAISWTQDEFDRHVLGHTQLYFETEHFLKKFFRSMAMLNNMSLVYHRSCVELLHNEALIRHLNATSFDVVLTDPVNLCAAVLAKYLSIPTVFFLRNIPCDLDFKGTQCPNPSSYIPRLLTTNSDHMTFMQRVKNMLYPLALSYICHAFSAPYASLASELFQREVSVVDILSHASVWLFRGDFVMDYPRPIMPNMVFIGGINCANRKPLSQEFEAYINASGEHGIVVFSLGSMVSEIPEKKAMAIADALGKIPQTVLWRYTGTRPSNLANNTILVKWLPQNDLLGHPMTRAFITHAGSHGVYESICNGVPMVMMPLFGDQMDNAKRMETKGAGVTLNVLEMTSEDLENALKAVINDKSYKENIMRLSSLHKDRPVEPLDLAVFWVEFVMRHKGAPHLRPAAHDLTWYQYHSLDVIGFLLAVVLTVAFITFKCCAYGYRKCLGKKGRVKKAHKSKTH
Description: UGT inhibition in human liver microsomes, chenodeoxycholic acid 24-glucuronidation (CDCAG). To be noted: pH 7.4, probe chenodeoxycholic acid (200 μM). As for the experimental part: (§1) The formation of a glucuronide conjugate from an isozyme-specific substrate (200 μM, Table 5) was examined to determine UGT activity levels in human liver microsomes. The typical incubation mixture contained human liver microsomes (0.5 mg/mL) along with SKN (10 μM), and MgCl2 (10 mM) in 50 mM Tris-HCl buffer (pH 7.4). The metabolic reaction was initiated by adding UPDGA (2 mM) and stopped by adding an equal volume of ice-cold methanol. […] The conditions used for the operation and analysis of the HPLC-DAD and LC-ESI-MS are provided in the Supplementary Materials and Table S3.
(§2) The solvent flow rate was set at 0.2 mL/min, and the column temperature was set at 35 °C. The LTQ instrument was operated in negative ion electron spray mode at an ion spray voltage of −4.2 kV and a source temperature of 275 °C. The sheath gas flow rate was 35 arb, and the aux gas flow rate was 5 arb. The MS conditions used to detect glucuronides via selected ion monitoring scan mode are summarized in Supplementary Materials Table S3.

The next series has as its target T3, UGT1A6 (Homo sapiens, UniProt P19224).
T3 construct: The typical incubation mixture contained human liver microsomes (0.5 mg/mL) along with SKN (10 μM); tissue BD Gentest; host or cells: human liver microsomes
T3 sequence (P19224 27-532): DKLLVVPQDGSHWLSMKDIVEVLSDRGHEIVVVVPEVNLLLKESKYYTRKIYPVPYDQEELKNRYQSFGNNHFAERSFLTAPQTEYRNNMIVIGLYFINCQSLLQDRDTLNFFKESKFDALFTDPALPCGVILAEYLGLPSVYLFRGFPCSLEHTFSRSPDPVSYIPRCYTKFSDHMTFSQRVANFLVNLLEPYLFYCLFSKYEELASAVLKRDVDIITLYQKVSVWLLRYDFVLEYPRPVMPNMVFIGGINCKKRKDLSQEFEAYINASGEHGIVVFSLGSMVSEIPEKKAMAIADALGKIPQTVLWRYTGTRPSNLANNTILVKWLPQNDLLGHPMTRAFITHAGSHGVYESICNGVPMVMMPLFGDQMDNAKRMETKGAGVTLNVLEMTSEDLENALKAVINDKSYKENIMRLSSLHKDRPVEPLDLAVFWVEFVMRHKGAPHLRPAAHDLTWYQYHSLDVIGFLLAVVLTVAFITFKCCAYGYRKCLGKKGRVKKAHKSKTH
Kind of series: UGT inhibition in human liver microsomes, 1-naphthol β-D-glucuronidation (NPG). To be noted: pH 7.4, probe 1-naphthol (200 μM). As for the experimental part: as §1, §2

The target in another series is T4, UGT1A9 (Homo sapiens, UniProt O60656).
T4 construct: The typical incubation mixture contained human liver microsomes (0.5 mg/mL) along with SKN (10 μM); tissue BD Gentest; host or cells: human liver microsomes
T4 sequence (O60656 26-530): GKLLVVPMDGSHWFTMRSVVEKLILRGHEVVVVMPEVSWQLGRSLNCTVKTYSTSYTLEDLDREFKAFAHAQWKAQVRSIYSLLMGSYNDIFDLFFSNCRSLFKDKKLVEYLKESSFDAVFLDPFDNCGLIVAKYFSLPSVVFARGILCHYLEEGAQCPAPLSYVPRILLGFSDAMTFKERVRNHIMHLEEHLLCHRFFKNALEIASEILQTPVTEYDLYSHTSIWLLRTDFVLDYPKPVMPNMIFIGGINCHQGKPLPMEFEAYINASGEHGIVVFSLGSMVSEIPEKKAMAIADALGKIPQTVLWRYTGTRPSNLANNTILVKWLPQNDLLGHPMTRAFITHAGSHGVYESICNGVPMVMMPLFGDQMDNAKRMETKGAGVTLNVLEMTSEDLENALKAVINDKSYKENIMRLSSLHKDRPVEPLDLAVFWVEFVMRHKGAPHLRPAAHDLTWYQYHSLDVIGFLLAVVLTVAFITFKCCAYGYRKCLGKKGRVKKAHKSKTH
Description: UGT inhibition in human liver microsomes, mycophenolic acid O-glucuronidation (MPAG). The conditions noted are these: for inhibition at 10 μM: human, pH 7.4, probe mycophenolic acid (200 μM), O-glucuronidation (MPAG), UGT1A9, MPAG. As for the experimental part:
as §1, §2

[1] abbreviates: human liver microsomes, 200 µM, inhibitor 10 M [sic], human liver microsomes 0.5 mg/mL, read-out: Inhibition (%).
Setting [2] is: inhibitor 10 µM, human liver microsomes 0.5 mg/mL, read-out: Inhibition (%).
The mark [3] stands for this setting: human liver microsomes, inhibitor 10 µM, human liver microsomes 0.5 mg/mL, read-out: Inhibition (%).
Setting [4] is: SKN 10 μM, 15 min pre-incubation, read-out: % Inhibition in Pre-Incubation.
Setting [5] is: SKN 10 μM, read-out: % Inhibition in Co-Incubation.

Where two headings read alike, the source gives them in different places.

As usually defined, the inhibition is the change of the read-out against control, counted positive when it falls. Consider `O=C1C[C@@H](c2ccc(O)c(O)c2)Oc2cc(O)cc(O)c21` [Eriodictyol, 3′-hydroxynaringenin], for which the inhibition at 60 min, 10 µM on CYP2B6 (setting [1]) came out at 16.1 ± 0.9%. For the same compound, the inhibition at 10 μM was 15.7 ± 2.9% on UGT1A3 (setting [2]), 1.9 ± 2.7% on UGT1A6 (setting [2]) and 2.9 ± 0.8% at UGT1A9 (setting [3]).
`COc1cc(O)c2c(c1)OC(c1ccc(O)cc1)CC2=O` (racemic) [SKN, (+/−) 7-O-methylnaringenin]: the inhibition at 60 min, 10 µM is 0.8 ± 0.2% at CYP2B6 (liver microsomes, 200 μM, SKN 10 μM, 15 min pre-incubation, read-out: % Inhibition in Pre-Incubation) and -0.6 ± 0.9% on CYP2B6 (liver microsomes, 200 μM, SKN 10 μM, human liver microsomes, read-out: % Inhibition in Co-Incubation). Besides, the inhibition at 10 μM is 0.8 ± 0.2% on UGT1A3 (setting [4]); -0.6 ± 0.9% on UGT1A3 (setting [5]); 10.1 ± 1.2% on UGT1A6 (setting [4]); 2 ± 0.6% on UGT1A6 (setting [5]); 3.5 ± 2.6% on UGT1A9 (human liver microsomes, SKN 10 μM, 15 min pre-incubation, read-out: % Inhibition in Pre-Incubation); -0.6 ± 3.1% at UGT1A9 (human liver microsomes, SKN 10 μM, human liver microsomes, read-out: % Inhibition in Co-Incubation). At UGT1A9 (SKN, human liver microsomes), the “fold higher inhibition of UGT1A9 in the pre-incubation sample than in the co-incubation sample” value was 1.5 fold. For the same compound, the “mode of UGT1A9 inhibition” value at UGT1A9 (pre-incubation 15 min, 10-fold dilution) was “irreversible UGT1A9 inhibitor”.
As to `O=C1C[C@@H](c2ccc(O)cc2)Oc2cc(O)cc(O)c21` [Naringenin], the inhibition at 60 min, 10 µM on CYP2B6 (setting [1]) worked out at 24 ± 2.2%. Also, the results for the inhibition at 10 μM at UGT1A3 (setting [2]), at UGT1A6 (setting [2]) and at UGT1A9 (setting [3]) were 2 ± 0.9%, 4.1 ± 3.1% and 2 ± 2.1%, respectively.
